Values of other authors, collected in patent US9661851B1, “Synergistic herbicidal composition and use thereof” (ROTAM AGROCHEM INTERNATIONAL COMPANY LIMITED, priority 2015, dated 2017).

Conditions: hydrolysis in water, storage with moisture, in formulations; stated with reference to U.S. Ser. No. 14/957,768

| Compound | stability |
| --- | --- |
| COC(=O)c1ccc(CNS(C)(=O)=O)c(S(=O)(=O)NC(=O)Nc2nc(OC)cc(OC)n2)c1 [crystalline modification I of mesosulfuron-methyl] [methyl 2-[(4,6-dimethoxypyrimidin-2-ylcarbamoyl)sulfamoyl]-α-(methanesulfonamido)-p-toluate] | improved stability |
| COC(=O)c1ccc(CNS(C)(=O)=O)c(S(=O)(=O)NC(=O)Nc2nc(OC)cc(OC)n2)c1 [mesosulfuron-methyl in the amorphous state] [methyl 2-[(4,6-dimethoxypyrimidin-2-ylcarbamoyl)sulfamoyl]-α-(methanesulfonamido)-p-toluate] | highly unstable |
